From patent publication US6924297B2, “Naphathalene derivatives which bind to the EP4 receptor” (SmithKline Beecham Corporation, priority 2000, dated 2005) come the findings set out here.

For this test, the target named is T1, human EP4 receptor (Homo sapiens, UniProt P35408).
T1 construct: expressed in transfected cells; host or cells: Chinese Hamster Ovary (CHO) cells infected with recombinant Semliki Forest Virus (SFV-1) particles; membranes prepared from these cells
The test is described as follows: Human EP4 Scintillation Proximity Assay (radioligand binding). Conditions: membranes of CHO cells expressing human EP4 receptor; [3H]-prostaglandin E2 radioligand; pKi from IC50 by Cheng-Prusoff; read-out: pKI at EP4 receptors (converted). On the procedure:
Quantification of radioligand binding by scintillation proximity assay (SPA) is a long-established principle. Briefly, the affinity of compounds for a receptor is assessed by the specific competition between known quantities of radiolabelled ligand and compound for that receptor. Increasing concentrations of compound reduce the amount of radiolabel that binds to the receptor. This gives rise to a diminishing scintillation signal from SPA beads coated with membranes that bear the receptor. The signal may be detected with a suitable scintillation counter and the data generated may be analysed with suitable curve-fitting software.
The human EP4 SPA assay (hereafter referred to as ‘the assay’) utilises membranes prepared from Chinese Hamster Ovary (CHO cells) infected with Semliki Forest Virus (SFV). Genetically engineered SFV-1 viral particles containing the genetic sequence of the human EP4 receptor were used to infect CHO cells resulting in expression of the receptor protein in cellular membranes. Cells washed free of media are homogenised in a pH-buffered medium containing peptidase inhibitors. A suitable buffer is of the following composition: 50 mM HEPES, 1 mM EDTA, 25 μg/ml bacitracin, 100 μM leupeptin, 1 mM PMSF, 2 μM Pepstatin A, pH adjusted to 7.4 with KOH. Following removal of cell debris by a low-speed centrifugation, a pellet of membranes is prepared by a high-speed (48000 g) centrifugation of the resulting supernatant. Membrane suspensions such as that described may be stored at −80° C. until used.
For assay, membranes expressing human EP4 receptors are diluted in a pH-buffered medium and mixed with SPA beads coated with a suitable substance to facilitate the adhesion of membranes to the beads. The concentrations of membrane protein and SPA beads chosen should result in SPA binding signal of at least 300 corrected counts per minute (CCPM) when tritiated radioligand at a concentration close to its Kd (affinity value) is combined with the mixture. Non-specific binding (nsb) may be determined by competition between the radiolabelled ligand and a saturating concentration of unlabelled ligand. In order to quantify the affinity of EP4 receptor ligands, compounds are diluted in a stepwise manner across the wells of a 96-well plate. Radioligand, compound, and unlabelled ligand are then added to a 96-well plate suitable for the measurement of SPA binding signals prior to the addition of bead/membrane mixture to initiate the binding reaction. Equilibrium may be achieved by incubation at room temperature for 120 minutes prior to scintillation counting. The data so generated may be analysed by means of a computerised curve-fitting routine in order to quantify the concentration of compound that displaces 50% of the specific radioligand binding (IC50). The affinity (pKi) of the compound may be calculated from the IC50 by application of the Cheng-Prusoff correction. Suitable reagents and protocols are: reaction buffer containing 50 mM HEPES, 10 mM MgCl2, pH adjusted to 7.4 with KOH; SPA beads coated with wheatgerm agglutinin; 1.25 nM [^3H]-prostaglandin E2 as radioligand; 10 μM prostaglandin E2 as unlabelled ligand; a three-fold dilution series of compound starting at 10 μM and ending at 0.3 nM is adequate.
(In a scintillation proximity assay essentially only radioactivity close to the scintillant gives light.)

T1 sequence (P35408 whole entry): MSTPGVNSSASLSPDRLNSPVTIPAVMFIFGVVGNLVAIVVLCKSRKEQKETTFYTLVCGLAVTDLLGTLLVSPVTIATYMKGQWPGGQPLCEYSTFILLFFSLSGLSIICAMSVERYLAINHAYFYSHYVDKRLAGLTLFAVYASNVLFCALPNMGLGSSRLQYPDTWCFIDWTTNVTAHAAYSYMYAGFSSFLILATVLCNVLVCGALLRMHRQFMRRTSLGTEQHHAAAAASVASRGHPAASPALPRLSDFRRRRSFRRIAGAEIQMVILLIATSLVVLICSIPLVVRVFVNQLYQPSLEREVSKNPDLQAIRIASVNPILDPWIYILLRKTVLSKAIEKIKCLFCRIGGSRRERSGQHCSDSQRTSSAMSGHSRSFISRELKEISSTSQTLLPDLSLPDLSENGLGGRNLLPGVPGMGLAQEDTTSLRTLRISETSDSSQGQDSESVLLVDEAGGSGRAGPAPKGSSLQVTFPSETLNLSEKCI

As for `CCOc1c2c(c(OCC)c3ccccc13)C(=O)N(c1ccc(CS(=O)(=O)NC(=O)Cc3cc(F)ccc3F)cc1)C2=O` [Example 69], the Ki was no more than 100 nM.
Next, `CCOc1c2c(c(OCC)c3ccccc13)C(=O)N(c1ccc(CS(=O)(=O)NC(=O)Cc3ccc(F)cc3)cc1)C2=O` [Example 62]: no more than 100 nM; `CCOc1c2c(c(OCC)c3ccccc13)C(=O)N(c1ccc(CS(=O)(=O)NC(=O)C3(c4ccccc4)CC3)cc1)C2` [Example 50]: no more than 100 nM; `CCOc1c2c(c(OCC)c3ccccc13)C(=O)N(c1ccc(CS(=O)(=O)NC(=O)Cc3ccc(C(C)C)cc3)cc1)C2` [Example 27]: no more than 100 nM.
Next, `CCOc1c2c(c(OCC)c3ccccc13)C(=O)N(c1ccc(CS(=O)(=O)NC(=O)Cc3ccc(C)cc3)cc1)C2=O` [Example 67, 1-[4-(4,9-diethoxy-1,3-dioxo-1,3-dihydro-2H-benzo[f]isoindol-2-yl)phenyl]-N-[(4-methylphenyl)acetyl]methanesulfonamide]: no more than 100 nM.
For `CCOc1c2c(c(OCC)c3ccccc13)C(=O)N(c1ccc(CS(=O)(=O)NC(=O)Cc3scnc3C)cc1)C2` [Example 60], the Ki is no more than 100 nM.
Next, `CCOc1c2c(c(OCC)c3ccccc13)C(=O)N(c1ccc(CS(=O)(=O)NC(=O)Cc3ccccc3Cl)cc1)C2` [Example 29]: no more than 100 nM; `CCOc1c2c(c(OCC)c3ccccc13)C(=O)N(c1ccc(CS(=O)(=O)NC(=O)C(C)(C)c3ccccc3)cc1)C2` [Example 22]: no more than 100 nM; `CCOc1c2c(c(OCC)c3ccccc13)C(=O)N(c1ccc(CS(=O)(=O)NC(=O)Cc3ccccc3F)cc1)C2` [Example 32]: no more than 100 nM.
In the case of `CCOc1c2c(c(OCC)c3ccccc13)C(=O)N(c1ccc(CS(=O)(=O)NC(=O)Cc3cccc4occc34)cc1)C2` [Example 88], the Ki was no more than 100 nM.
For `CCOc1c2c(c(OCC)c3ccccc13)C(=O)N(c1ccc(CS(=O)(=O)NC(=O)Cc3ccccc3OC)cc1)C2` [Example 31, 1-[4-(4,9-diethoxy-1-oxo-1,3-dihydro-2H-benzo[f]isoindol-2-yl)phenyl]-N-[(2-methoxyphenyl)acetyl]methanesulfonamide], the Ki was no more than 100 nM.
As to `CCOc1c2c(c(OCC)c3ccccc13)C(=O)N(c1ccc(CS(=O)(=O)NC(=O)Cc3c(C)cccc3C)cc1)C2=O` [Example 72], the Ki was no more than 100 nM.
On to `CCOc1c2c(c(OCC)c3ccccc13)C(=O)N(c1ccc(CS(=O)(=O)NC(=O)Cc3ccccc3OC)cc1)C2=O` [Example 71, 1-[4-(4,9-diethoxy-1,3-dioxo-1,3-dihydro-2H-benzo[f]isoindol-2-yl)phenyl]-N-[(2-methoxyphenyl)acetyl]methanesulfonamide], for which the Ki was no more than 100 nM.
Turning to `CCOc1c2c(c(OCC)c3ccccc13)C(=O)N(c1ccc(CS(=O)(=O)NC(=O)Cc3ccccc3)cc1)C2=O` [Example 1, 1-[4-(4,9-diethoxy-1,3-dioxo-1,3-dihydro-2H-benzo[f]isoindol-2-yl)phenyl]-N-(phenylacetyl)methanesulfonamide], the Ki was no more than 100 nM.
For `CCOc1c2c(c(OCC)c3ccccc13)C(=O)N(c1ccc(CS(=O)(=O)NC(=O)Cc3ccc(C)cc3)cc1)C2` [Example 20], the Ki was no more than 100 nM.
Next, `CCOc1c2c(c(OCC)c3ccccc13)C(=O)N(c1ccc(CS(=O)(=O)NC(=O)Cc3ccc(CC(C)C)cc3)cc1)C2` [Example 23]: no more than 100 nM; `CCOc1c2c(c(OCC)c3ccccc13)C(=O)N(c1ccc(CS(=O)(=O)NC(=O)Cc3cccc(OC)c3OC)cc1)C2` [Example 34, 1-[4-(4,9-diethoxy-1-oxo-1,3-dihydro-2H-benzo[f]isoindol-2-yl)phenyl]-N-[(2,3-dimethoxyphenyl)acetyl]methanesulfonamide]: no more than 100 nM; `CCOc1c2c(c(OCC)c3ccccc13)C(=O)N(c1ccc(CS(=O)(=O)NC(=O)Cc3ccccc3CC(=O)OC)cc1)C2` [Example 47]: no more than 100 nM.
Next, `CCOc1c2c(c(OCC)c3ccccc13)C(=O)N(c1ccc(CS(=O)(=O)NC(=O)Cc3cccc(OC)c3)cc1)C2=O` [Example 63]: no more than 100 nM; `CCOc1c2c(c(OCC)c3ccccc13)C(=O)N(c1ccc(CS(=O)(=O)NC(=O)Cc3cccc(OCc4ccccc4)c3)cc1)C2` [Example 42]: no more than 100 nM.
The result for `CCOc1c2c(c(OCC)c3ccccc13)C(=O)N(c1ccc(CS(=O)(=O)NC(=O)C(C)c3ccc(CC(C)C)cc3)cc1)C2` (stereo not shown) [Example 40] reads no more than 100 nM.
Take `CCOc1c2c(c(OCC)c3ccccc13)C(=O)N(c1ccc(CS(=O)(=O)NC(=O)Cc3ccc4c(c3)OCO4)cc1)C2=O` [Example 93]: the Ki was no more than 100 nM.
The result for `CCOc1c2c(c(OCC)c3ccccc13)C(=O)N(c1ccc(CS(=O)(=O)NC(=O)Cc3ccc4ccccc4c3)cc1)C2` [Example 48] reads no more than 100 nM; that for `CCOc1c2c(c(OCC)c3ccccc13)C(=O)N(c1ccc(CS(=O)(=O)NC(=O)Cc3ccc4c(c3)OCO4)cc1)C2` [Example 84], no more than 100 nM.
Next, `CCOc1c2c(c(OCC)c3ccccc13)C(=O)N(c1ccc(CS(=O)(=O)NC(=O)C(CC)c3ccccc3)cc1)C2=O` (stereo not shown) [Example 64]: no more than 100 nM; `CCOc1c2c(c(OCC)c3ccccc13)C(=O)N(c1ccc(CS(=O)(=O)NC(=O)Cc3ccccc3C)cc1)C2` [Example 21]: no more than 100 nM.
Next, `CCOc1c2c(c(OCC)c3ccccc13)C(=O)N(c1ccc(CS(=O)(=O)NC(=O)Cc3cccc(OC(F)(F)F)c3)cc1)C2` [Example 81]: no more than 100 nM; `CCOc1c2c(c(OCC)c3ccccc13)C(=O)N(c1ccc(CS(=O)(=O)NC(=O)Cc3cccc(C)c3)cc1)C2` [Example 26]: no more than 100 nM; `CCOc1c2c(c(OCC)c3ccccc13)C(=O)N(c1ccc(CS(=O)(=O)NC(=O)C(C)c3ccccc3)cc1)C2=O` (stereo not shown) [Example 68]: no more than 100 nM.
Consider `CCOc1c2c(c(OCC)c3ccccc13)C(=O)N(c1ccc(CS(=O)(=O)NC(=O)Cc3ccc(OC)c(OC)c3)cc1)C2=O` [Example 66, 1-[4-(4,9-diethoxy-1,3-dioxo-1,3-dihydro-2H-benzo[f]isoindol-2-yl)phenyl]-N-[(3,4-dimethoxyphenyl)acetyl]methanesulfonamide], for which the Ki is no more than 100 nM.
Next, `CCOc1c2c(c(OCC)c3ccccc13)C(=O)N(c1ccc(CS(=O)(=O)NC(=O)Cc3cc(OC)ccc3OC)cc1)C2` [Example 36]: no more than 100 nM; `CCOc1c2c(c(OCC)c3ccccc13)C(=O)N(c1ccc(CS(=O)(=O)NC(=O)Cc3cccc4ccccc34)cc1)C2=O` [Example 76]: no more than 100 nM.
For `CCOc1c2c(c(OCC)c3ccccc13)C(=O)N(c1ccc(CS(=O)(=O)NC(=O)Cc3cccc(F)c3)cc1)C2=O` [Example 65], the Ki is no more than 100 nM.
`CCOc1c2c(c(OCC)c3ccccc13)C(=O)N(c1ccc(CS(=O)(=O)NC(=O)Cc3ccc(-c4ccccc4)cc3)cc1)C2` [Example 30]: the Ki is no more than 100 nM.
Next, `CCOc1c2c(c(OCC)c3ccccc13)C(=O)N(c1ccc(CS(=O)(=O)NC(=O)C(C)c3ccc4cc(OC)ccc4c3)cc1)C2` (stereo not shown) [Example 86]: no more than 100 nM; `CCOc1c2c(c(OCC)c3ccccc13)C(=O)N(c1ccc(CS(=O)(=O)NC(=O)Cc3cc(C)ccc3C)cc1)C2` [Example 39]: no more than 100 nM.
Next, `CCOc1c2c(c(OCC)c3ccccc13)C(=O)N(c1ccc(CS(=O)(=O)NC(=O)Cc3cccc(F)c3)cc1)C2` [Example 25]: no more than 100 nM.
Next, `CCOc1c2c(c(OCC)c3ccccc13)C(=O)N(c1ccc(CS(=O)(=O)NC(=O)Cc3ccc(OC)c(OC)c3)cc1)C2` [Example 38, 1-[4-(4,9-diethoxy-1-oxo-1,3-dihydro-2H-benzo[f]isoindol-2-yl)phenyl]-N-[(3,4-dimethoxyphenyl)acetyl]methanesulfonamide]: no more than 100 nM; `CCOc1c2c(c(OCC)c3ccccc13)C(=O)N(c1ccc(CS(=O)(=O)NC(=O)Cc3ccsc3)cc1)C2` [Example 51]: no more than 100 nM; `CCOc1c2c(c(OCC)c3ccccc13)C(=O)N(c1ccc(CS(=O)(=O)NC(=O)Cc3ccccc3C)cc1)C2=O` [Example 61]: no more than 100 nM.
